Test results as given in ChEMBL document CHEMBL1158003, “Discorhabdin P, a new enzyme inhibitor from a deep-water Caribbean sponge of the genus Batzella” (J Nat Prod, 1999).
Values after ≈ are worked out from the molar mass of the structure shown. Blank lines part the entries; values can stand above or below the compound they belong to. Active and inactive are the calls of the source. The rule behind the calls is not given here.

Legend:
Caspase-3 (Homo sapiens) [1] = molecular target: T1, Caspase-3 (Homo sapiens) (UniProt P42574); test: Inhibition of CPP32 peptidase activity at 5 ug/mL
T1 sequence (whole entry): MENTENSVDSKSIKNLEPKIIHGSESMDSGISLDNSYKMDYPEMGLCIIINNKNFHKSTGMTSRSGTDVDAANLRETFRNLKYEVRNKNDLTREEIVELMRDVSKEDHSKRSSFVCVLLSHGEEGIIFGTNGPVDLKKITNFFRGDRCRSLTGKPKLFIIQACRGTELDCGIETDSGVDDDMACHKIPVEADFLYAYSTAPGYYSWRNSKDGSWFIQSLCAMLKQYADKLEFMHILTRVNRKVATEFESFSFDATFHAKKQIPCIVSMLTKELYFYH

Bos taurus = species on record: Bos taurus; test: Inhibition of bovine brain calcineurin phosphatase activity at 5 ug/mL
A549 = test: Cytotoxicity against human A549 cells; assay type: functional, cell-based
P388 = test: Cytotoxicity against mouse P388 cells; assay type: functional, cell-based
[2] = Inhibition of bovine brain calcineurin phosphatase activity; set-up: species or system Bos taurus
Caspase-3 (Homo sapiens) [3] = molecular target: T1, Caspase-3 (Homo sapiens); test: Inhibition of CPP32 peptidase activity at 50 nM

Activity (Caspase-3 (Homo sapiens) [1]): inactive
Activity (Bos taurus): inactive
SMILES: O=C1C(Br)=CC2(C=C1Br)CCNC1=C2C2=NCCc3c[nH]c(c32)C1=O

SMILES: Cn1cc2c3c1C(=O)C1=C(C3=NCC2)C2(C=C(Br)C(=O)C(Br)=C2)CCN1 [DISCORHABDIN]
IC50 (A549): 0.41 µg/mL (≈ 0.859 µM)
IC50 (P388): 0.025 µg/mL (≈ 0.0524 µM)
IC50 [2]: 0.55 µg/mL (≈ 1.15 µM)

inhibition (Caspase-3 (Homo sapiens) [3]): 90%
SMILES: CC(C)[C@H](NC(=O)[C@H](CCC(=O)O)NC(=O)[C@@H](N)CC(=O)O)C(=O)N[C@H](C=O)CC(=O)O
